From patent US20040127361A1 (priority 2003, published 2004)

Columns and labels:
Type in all cases: in vivo
Puccinia recondita = experiment: Test B: wheat leaf rust, preventive spray on wheat seedlings; conditions: wheat seedlings sprayed to run-off, inoculated following day with spore suspension, saturated atmosphere 20° C. 24 hours then growth chamber 6 days; test concentration not stated
Excerpt: (§1) General protocol for preparing test suspensions: Test compounds are first dissolved in acetone in an amount equal to 3% of the final volume and then suspended at the desired concentration (in ppm) in acetone and purified water (50/50 mix) containing 250 ppm of the surfactant Trem® 014 (polyhydric alcohol esters). The resulting test suspensions are then used in the following tests. Spraying a 200 ppm test suspension to the point of run-off on the test plants is the equivalent of a rate of 500 g/ha
The test suspension was sprayed to the point of run-off on wheat seedlings. The following day the seedlings were inoculated with a spore suspension of Puccinia recondita (the causal agent of wheat leaf rust) and incubated in a saturated atmosphere at 20° C. for 24 hours, and then moved to a growth chamber at 20° C. for 6 days, after which disease ratings were made.
(§2) Results for Tests A-D are given in Table A. In the table, a rating of 100 indicates 100% disease control and a rating of 0 indicates no disease control (relative to the controls). A dash (-) indicates no test results. ND indicates disease control not determined due to phytotoxicity.

Phytophthora infestans = conditions: tomato seedlings sprayed to run-off, inoculated following day with spore suspension, saturated atmosphere 20° C. 24 hours then growth chamber 5 days; test concentration not stated
[1] = test system: Erysiphe graminis f sp. tritici; experiment: Test A: wheat powdery mildew, preventive spray on wheat seedlings; conditions: wheat seedlings sprayed to run-off, inoculated following day with spore dust, 20° C. for 7 days; test concentration not stated
Excerpt: as §1
The test suspension was sprayed to the point of run-off on wheat seedlings. The following day the seedlings were inoculated with a spore dust of Erysiphe graminis f sp. tritici, (the causal agent of wheat powdery mildew) and incubated in a growth chamber at 20° C. for 7 days, after which disease ratings were made.
as §2

Structure (SMILES) | Test B disease control rating (100 = 100% disease control, 0 = no disease control relative to the controls) (Puccinia recondita) | Test C disease control rating (100 = 100% disease control, 0 = no disease control relative to the controls) (Phytophthora infestans) | Test A disease control rating (100 = 100% disease control, 0 = no disease control relative to the controls) [1]
Cc1cnc2c(c1)CCCC2NC(=O)c1c(Cl)cccc1Cl (stereo not drawn) [Compound A1, 2,6-dichloro-N-(5,6,7,8-tetrahydro-3-methyl-8-quinolinyl)benzamide] | 84% | 100% | 0%
Cc1cnc2c(c1)CCCC2NC(=O)c1ccc(Br)cc1 (stereo not drawn) [Compound A2] | 18% | 5% | 0%
Cc1cnc2c(c1)CCCC2NC(=O)c1ccccc1C(F)(F)F (stereo not drawn) [Compound A3] | 41% | 47% | 0%
Cc1cnc2c(c1)CCCC2NC(=O)c1c(F)cccc1F (stereo not drawn) [Compound A4] | 0% | 90% | 0%
Cc1cnc2c(c1)CCCC2NC(=O)c1ccccc1Cl (stereo not drawn) [Compound A5] | 55% | 46% | 0%
Cc1cnc2c(c1)CCCC2NC(=O)c1c(Cl)cc(Cl)cc1Cl (stereo not drawn) [Compound A6] | 9% | 82% | 0%
Cc1cnc2c(c1)CCCC2NC(=O)c1ccccc1C (stereo not drawn) [Compound A7] | 45% | 75% | 0%
Cc1cnc2c(c1)CCCC2NC(=O)c1c(F)ccc(F)c1F (stereo not drawn) [Compound A8, 2,3,6-trifluoro-N-(5,6,7,8-tetrahydro-3-methyl-8-quinolinyl)benzamide] | 55% | 100% | 0%
Cc1cnc2c(c1)CCCC2NC(=O)c1c(F)cccc1Cl (stereo not drawn) [Compound A9] | 38% | 97% | 0%
Cc1cnc2c(c1)CCCC2NC(=O)c1cccnc1Nc1cccc(C(F)(F)F)c1 (stereo not drawn) [Compound B1] | 19% | 16% | 0%
CSc1ncccc1C(=O)NC1CCCc2cc(C)cnc21 (stereo not drawn) [Compound B3] | 23% | 56% | 0%
Cc1cnc2c(c1)CCCC2NC(=O)c1ccc(Cl)nc1 (stereo not drawn) [Compound B4] | 9% | 32% | 0%
Cc1cnc2c(c1)CCCC2NC(=O)c1cccnc1O (stereo not drawn) [Compound B8] | 19% | 47% | 0%
Cc1cnc2c(c1)CCCC2NC(=O)c1ccnc(Cl)c1 (stereo not drawn) [Compound C1] | 55% | 84% | 0%
COc1cc(C(=O)NC2CCCc3cc(C)cnc32)cc(Cl)n1 (stereo not drawn) [Compound C2, 2-chloro-6-methoxy-N-(5,6,7,8-tetrahydro-3-methyl-8-quinolinyl)4-pyridinecarboxamide] | 28% | 18% | 95%
